This passage reports MIC results from ChEMBL document CHEMBL1150474, “Synthesis of new penem dithiocarbamates” (1993).

Holding throughout (format): functional
Test [1] concerns Escherichia coli. Kind of test: Antibacterial activity against Escherichia coli ATCC 25922.
Test [2] relates to Pseudomonas aeruginosa. In words: Antibacterial activity against Pseudomonas aeruginosa ATCC 27853.
Test [3] has as its system Pseudomonas aeruginosa. Kind of test: Antibacterial activity against Pseudomonas aeruginosa VR5.
For test [4], the system named is Staphylococcus aureus. In words: Antibacterial activity against Staphylococcus aureus ATCC 25923.
Test [5] has as its system Staphylococcus aureus. In words: Antibacterial activity against Staphylococcus aureus MR 0.13.
For test [6], the system named is Escherichia coli. In words: Antibacterial activity against Escherichia coli DC2, hyperpermeable strain.

A word on the MIC: it is the smallest concentration in the dilution series that meets the test's criterion for growth inhibition. Read a high MIC as weaker potency. `CC1(C)S[C@@H]2[C@H](NC(=O)[C@H](N)c3ccccc3)C(=O)N2[C@H]1C(=O)O.CC1(C)[C@H](C(=O)O)N2C(=O)C[C@H]2S1(=O)=O`: the MIC against Escherichia coli [1] is 8 µg/mL; with Pseudomonas aeruginosa [2] it was 32 µg/mL; in the test with Pseudomonas aeruginosa [3], 0.25 µg/mL; against Staphylococcus aureus [4], 0.25 µg/mL; with Staphylococcus aureus [5], 0.12 µg/mL.
Take `C[C@@H](O)[C@H]1C(=O)N2C(C(=O)[O-])=C(CSC(=S)N3CCCC3)S[C@H]12.[Na+]`: the MIC in the test with Escherichia coli [1] was over 32 µg/mL; in the test with Escherichia coli [6], 0.5 µg/mL; in the test on Pseudomonas aeruginosa [2], over 32 µg/mL; with Pseudomonas aeruginosa [3], over 32 µg/mL; against Staphylococcus aureus [4], 0.03 µg/mL; against Staphylococcus aureus [5], 0.12 µg/mL.
Turning to `C[C@@H](O)[C@H]1C(=O)N2C(C(=O)[O-])=C(CSC(=S)N(C)Cc3ccccc3)S[C@H]12.[Na+]`, the MIC with Escherichia coli [1] was over 32 µg/mL; in the test with Escherichia coli [6], 1 µg/mL; in the test on Pseudomonas aeruginosa [2], over 32 µg/mL; against Pseudomonas aeruginosa [3], 32 µg/mL; against Staphylococcus aureus [4] it was 0.06 µg/mL; against Staphylococcus aureus [5], 0.5 µg/mL.
As for `C[C@@H](O)[C@H]1C(=O)N2C(C(=O)[O-])=C(CSC(=S)N3CCN(C)CC3)S[C@H]12.[Na+]`, the MIC was 4 µg/mL in the test on Escherichia coli [1]; 0.5 µg/mL against Escherichia coli [6]; over 32 µg/mL against Pseudomonas aeruginosa [2]; 4 µg/mL in the test with Pseudomonas aeruginosa [3]; 0.03 µg/mL in the test on Staphylococcus aureus [4]; 0.06 µg/mL in the test with Staphylococcus aureus [5].
Turning to `C[C@@H](O)[C@H]1C(=O)N2C(C(=O)[O-])=C(CSC(=S)N3CCN(C(=O)c4ccc(O)c(O)c4)CC3)S[C@H]12.[Na+]`, the minimal inhibitory concentration (MIC) in the test with Escherichia coli [1] was over 32 µg/mL; in the test on Escherichia coli [6], 0.5 µg/mL; against Pseudomonas aeruginosa [2], over 32 µg/mL; with Staphylococcus aureus [4], 0.25 µg/mL; in the test with Staphylococcus aureus [5], 1 µg/mL.
Consider `C[C@@H]([O-])[C@H]1C(=O)N2C(C(=O)[O-])=C(CSC(=S)N3CC[N+](C)(C)CC3)S[C@H]12.[Na+]`, for which the MIC is 4 µg/mL with Escherichia coli [1]; 2 µg/mL in the test on Escherichia coli [6]; over 32 µg/mL against Pseudomonas aeruginosa [2]; 4 µg/mL with Pseudomonas aeruginosa [3]; 0.03 µg/mL in the test with Staphylococcus aureus [4]; 0.03 µg/mL against Staphylococcus aureus [5].
For `C[C@@H](O)[C@H]1C(=O)N2C(C(=O)[O-])=C(CSC(=S)N3CCNCC3)S[C@H]12.[Na+]`, the MIC in the test on Escherichia coli [1] is 8 µg/mL; with Escherichia coli [6] it was 4 µg/mL; with Pseudomonas aeruginosa [2], over 32 µg/mL; with Pseudomonas aeruginosa [3], 4 µg/mL; against Staphylococcus aureus [4] it was 0.12 µg/mL; against Staphylococcus aureus [5], 0.25 µg/mL.
As for `C[C@@H](O)[C@H]1C(=O)N2C(C(=O)[O-])=C(CSC(=S)N(C)CC(N)=O)S[C@H]12.[Na+]`, the MIC was 8 µg/mL with Escherichia coli [1]; 0.5 µg/mL in the test on Escherichia coli [6]; over 32 µg/mL in the test with Pseudomonas aeruginosa [2]; 4 µg/mL against Pseudomonas aeruginosa [3]; 0.12 µg/mL with Staphylococcus aureus [4]; 0.03 µg/mL against Staphylococcus aureus [5].
As to `C[C@@H](O)[C@H]1C(=O)N2C(C(=O)[O-])=C(CSC(=S)N(C)OCc3ccccc3)S[C@H]12.[Na+]`, the MIC against Escherichia coli [1] is over 32 µg/mL; against Escherichia coli [6], 2 µg/mL; with Pseudomonas aeruginosa [2], over 32 µg/mL; with Pseudomonas aeruginosa [3] it was 32 µg/mL; against Staphylococcus aureus [4] it was 0.03 µg/mL; in the test with Staphylococcus aureus [5], 0.12 µg/mL.
Regarding `C[C@@H](O)[C@H]1C(=O)N2C(C(=O)[O-])=C(CSC(=S)N(CCO)CCO)S[C@H]12.[Na+]`, the MIC against Escherichia coli [1] is 32 µg/mL; against Escherichia coli [6], 4 µg/mL; with Pseudomonas aeruginosa [2], over 32 µg/mL; against Pseudomonas aeruginosa [3] it was 2 µg/mL; against Staphylococcus aureus [4], 0.25 µg/mL; in the test with Staphylococcus aureus [5] it was 0.5 µg/mL.
As to `C[C@@H](O)[C@H]1C(=O)N2C(C(=O)[O-])=C(CSC(=S)N(C)CCc3ccccn3)S[C@H]12.[Na+]`, the MIC in the test on Escherichia coli [1] is over 32 µg/mL; in the test with Escherichia coli [6], 2 µg/mL; in the test on Pseudomonas aeruginosa [2], over 32 µg/mL; in the test on Pseudomonas aeruginosa [3], over 32 µg/mL; in the test with Staphylococcus aureus [4] it was 0.06 µg/mL; with Staphylococcus aureus [5] it was 0.12 µg/mL.
Consider `CC(=O)N1CCN(C(=S)SCC2=C(C(=O)[O-])N3C(=O)[C@H]([C@@H](C)O)[C@H]3S2)CC1.[Na+]`, for which the MIC is 16 µg/mL in the test with Escherichia coli [1]; 4 µg/mL in the test on Escherichia coli [6]; over 32 µg/mL in the test with Pseudomonas aeruginosa [2]; 16 µg/mL with Pseudomonas aeruginosa [3]; 0.12 µg/mL with Staphylococcus aureus [4]; 0.12 µg/mL in the test with Staphylococcus aureus [5].
Turning to `C[C@@H](O)[C@H]1C(=O)N2C(C(=O)[O-])=C(CSC(=S)N(C)c3ccccc3)S[C@H]12.[Na+]`, the MIC is over 32 µg/mL against Escherichia coli [1]; 1 µg/mL in the test on Escherichia coli [6]; over 32 µg/mL with Pseudomonas aeruginosa [2]; over 32 µg/mL against Pseudomonas aeruginosa [3]; 0.03 µg/mL in the test with Staphylococcus aureus [4]; 0.25 µg/mL in the test with Staphylococcus aureus [5].
Consider `C[C@@H](O)[C@H]1C(=O)N2C(C(=O)[O-])=C(CSC(=S)N3CCOCC3)S[C@H]12.[Na+]`, for which the MIC is 32 µg/mL in the test on Escherichia coli [1]; 0.5 µg/mL with Escherichia coli [6]; over 32 µg/mL with Pseudomonas aeruginosa [2]; 0.5 µg/mL in the test with Pseudomonas aeruginosa [3]; 0.03 µg/mL against Staphylococcus aureus [4]; 0.06 µg/mL against Staphylococcus aureus [5].
With `C[C@@H](O)[C@H]1C(=O)N2C(C(=O)[O-])=C(CSC(=S)N(C)c3ccccn3)S[C@H]12.[Na+]`, the MIC was over 32 µg/mL in the test on Escherichia coli [1]; 1 µg/mL with Escherichia coli [6]; over 32 µg/mL against Pseudomonas aeruginosa [2]; over 32 µg/mL in the test with Pseudomonas aeruginosa [3]; 0.06 µg/mL against Staphylococcus aureus [4]; 0.5 µg/mL against Staphylococcus aureus [5].
Take `CC(=O)OCCN(CCOC(C)=O)C(=S)SCC1=C(C(=O)[O-])N2C(=O)[C@H]([C@@H](C)O)[C@H]2S1.[Na+]`: the MIC is over 32 µg/mL in the test with Escherichia coli [1]; 2 µg/mL with Escherichia coli [6]; over 32 µg/mL in the test on Pseudomonas aeruginosa [2]; over 32 µg/mL in the test on Pseudomonas aeruginosa [3]; 0.12 µg/mL with Staphylococcus aureus [4]; 0.5 µg/mL in the test with Staphylococcus aureus [5].
As to `C[C@@H](O)[C@H]1C(=O)N2C(C(=O)[O-])=C(CSC(=S)N(C)C)S[C@H]12.[Na+]`, the minimum inhibitory concentration (MIC) is 32 µg/mL against Escherichia coli [1]; 0.12 µg/mL against Escherichia coli [6]; over 32 µg/mL against Pseudomonas aeruginosa [2]; 1 µg/mL with Pseudomonas aeruginosa [3]; 0.03 µg/mL with Staphylococcus aureus [4]; 0.06 µg/mL with Staphylococcus aureus [5].
